Experiments:
Type in all cases: functional
Burkholderia cepacia = test: Antibacterial activity against Burkholderia cepacia 10 after 3 mins.
Pseudomonas aeruginosa [1] = test: Antibacterial activity against Pseudomonas aeruginosa ATCC 10145 after 3 mins.
Escherichia coli [2] = test: Antibacterial activity against Escherichia coli after 3 mins.
Staphylococcus aureus [3] = test: Antibacterial activity against Staphylococcus aureus after 3 mins.
Staphylococcus aureus [4] = test: Antibacterial activity against methicillin-resistant Staphylococcus aureus 57 after 3 mins.
Pseudomonas aeruginosa [5] = test: Antibacterial activity against Pseudomonas aeruginosa ATCC 10145 after 30 seconds
Escherichia coli [6] = test: Antibacterial activity against Escherichia coil NIHJ JC-2 after 30 seconds
[7] = test system: Staphylococcus epidermidis; test: Antibacterial activity against Staphylococcus epidermidis ATCC 12228 after 30 seconds
Staphylococcus aureus [8] = test: Antibacterial activity against Staphylococcus aureus FDA 209P after 30 seconds
Enterococcus faecalis [9] = test: Antibacterial activity against Enterococcus faecalis IFO 12580 after 30 seconds
Serratia marcescens [10] = test: Antibacterial activity against Serratia marcescens IFO 12648 after 30 seconds
Escherichia coli [11] = test: Antibacterial activity against Escherichia coli NIHJ JC-2,after 30 seconds
Staphylococcus aureus [12] = test: Antibacterial activity against Staphylococcus aureus after 30 seconds
Enterococcus faecalis [13] = test: Antibacterial activity against Enterococcus faecalis IFO 12580
Serratia marcescens [14] = test: Antibacterial activity against Serratia marcescens IFO 12648,after 30 seconds

| SMILES | Activity (Burkholderia cepacia) | Activity (Pseudomonas aeruginosa [1]) | Activity (Escherichia coli [2]) | Activity (Staphylococcus aureus [3]) | further results |
| --- | --- | --- | --- | --- | --- |
| CCCCCCCCCCCC/N=C(N)/N=C(\N)Nc1ccc(Cl)c(Cl)c1.Cl | >500 µg/mL | 20 µg/mL | 20 µg/mL | 100 µg/mL |  |
| CCCCCCCCCCCC/N=C(N)/N=C(\N)NCc1ccc(Cl)c(Cl)c1.Cl | >500 µg/mL | 100 µg/mL | 20 µg/mL | 100 µg/mL |  |
| Cl.N=C(NCc1ccc(Cl)c(Cl)c1)NC(=N)Nc1ccc(Cl)cc1 |  | 50 µg/mL | 50 µg/mL | 50 µg/mL | Activity (Staphylococcus aureus [4]): 100 µg/mL |
| CCCCCCCCCC/N=C(N)/N=C(\N)Nc1ccc(Cl)c(Cl)c1.Cl | 100 µg/mL | 100 µg/mL | 20 µg/mL | 100 µg/mL |  |
| CCCCCCCC/N=C(N)/N=C(\N)NCc1ccc(Cl)c(Cl)c1.Cl | <=10 ug ml-1 | <=10 ug ml-1 | <=10 ug ml-1 | <=10 ug ml-1 | Activity (Pseudomonas aeruginosa [5]): 10 µg/mL; Activity (Escherichia coli [6]): 20 µg/mL; Activity [7]: 5 µg/mL; Activity (Staphylococcus aureus [8]): 20 µg/mL; Activity (Enterococcus faecalis [9]): 10 µg/mL; Activity (Serratia marcescens [10]): 20 µg/mL |
| CCCCCCCCCC/N=C(N)/N=C(\N)NCc1ccc(Cl)c(Cl)c1.Cl | 100 µg/mL | 100 µg/mL | <=10 ug ml-1 | 50 µg/mL |  |
| N=C(NCCCCCCNC(=N)NC(=N)Nc1ccc(Cl)cc1)NC(=N)Nc1ccc(Cl)cc1 [CHLORHEXIDINE] | >500 µg/mL | 100 µg/mL | 20 µg/mL | 100 µg/mL | Activity (Pseudomonas aeruginosa [5]): 160 µg/mL; Activity (Escherichia coli [11]): 80 µg/mL; Activity (Staphylococcus aureus [12]): >160 µg/mL; Activity [7]: 40 µg/mL; Activity (Enterococcus faecalis [13]): >160 µg/mL; Activity (Serratia marcescens [14]): 40 µg/mL |
| CCCCCCCC/N=C(N)/N=C(\N)Nc1ccc(Cl)c(Cl)c1.Cl |  | 50 µg/mL | 50 µg/mL | 50 µg/mL |  |
| Cl.N=C(NCc1ccc(Cl)c(Cl)c1)NC(=N)Nc1ccc(Br)cc1 | 20 µg/mL | 20 µg/mL | <=10 ug ml-1 | 20 µg/mL |  |
| CCCCCC/N=C(N)/N=C(\N)Nc1ccc(Cl)cc1.Cl | 100 µg/mL | 20 µg/mL | 100 µg/mL | 500 µg/mL |  |
| Cl.N=C(NCc1ccc(Cl)c(Cl)c1)NC(=N)Nc1ccc(I)cc1 | <=10 ug ml-1 | <=10 ug ml-1 | <=10 ug ml-1 | 20 µg/mL |  |
| Cl.N=C(NCc1ccc(Cl)c(Cl)c1)NC(=N)Nc1ccc(Cl)c(Cl)c1Cl | <=10 ug ml-1 | <=10 ug ml-1 | <=10 ug ml-1 | <=10 ug ml-1 |  |
| CCCCCC/N=C(N)/N=C(\N)NCc1ccc(Cl)cc1.Cl | 100 µg/mL | 50 µg/mL | 100 µg/mL | >100 µg/mL |  |
| Cl.N=C(NCc1ccc(Cl)c(Cl)c1)NC(=N)Nc1ccc(Cl)c(Cl)c1 |  | 10 µg/mL | 10 µg/mL | 50 µg/mL |  |
| CCCCCC/N=C(N)/N=C(\N)NCc1ccc(Cl)c(Cl)c1.Cl | 100 µg/mL | 50 µg/mL | 50 µg/mL | 50 µg/mL |  |
| Cl.N=C(NCc1ccc(Cl)c(Cl)c1)NC(=N)Nc1ccc(Cl)cc1Cl | <=10 ug ml-1 | <=10 ug ml-1 | <=10 ug ml-1 | 20 µg/mL |  |
| Cc1ccc(NC(=N)/N=C(\N)NCc2ccc(Cl)c(Cl)c2)cc1C.Cl | 20 µg/mL | <=10 ug ml-1 | <=10 ug ml-1 | 20 µg/mL |  |
| CCCCCC/N=C(N)/N=C(\N)Nc1ccc(Cl)c(Cl)c1.Cl | 20 µg/mL | 20 µg/mL | 20 µg/mL | 100 µg/mL |  |
